Values quoted from earlier work in US20120289547A1, “COMBINATIONS OF PROPIVERINE AND SALIVARY STIMULANTS FOR THE TREATMENT OF OVERACTIVE BLADDER” (THERAVIDA, INC., priority 2011, published 2012).

Conditions: 5 mg of pilocarpine

SMILES: CC[C@@H]1C(=O)OC[C@@H]1Cc1cncn1C [pilocarpine]
- Time of maximum saliva output after administration: about 30 minutes
